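Each compound was tested at five concentrations against cells in 96-well plates for 48 hours. The concentration for 50% growth inhibition is given as GI50. TGI marks complete inhibition of growth.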
Legend:
Assay in all cases: inhibition of tumour cell growth, NCI panel, 48 h
CCRF-CEM leukemia = system: CCRF-CEM leukemia
SNB-19 CNS = system: SNB-19 CNS
T-47D breast = system: T-47D breast
SK-OV-3 ovarian = system: SK-OV-3 ovarian
UACC-62 melanoma = system: UACC-62 melanoma
TK-10 renal = system: TK-10 renal
A498 renal = system: A498 renal
SW-620 colon = system: SW-620 colon
786-0 renal = system: 786-0 renal
ACHN renal = system: ACHN renal

| SMILES | GI50 (CCRF-CEM leukemia) | TGI (CCRF-CEM leukemia) | GI50 (SNB-19 CNS) | TGI (SNB-19 CNS) | GI50 (T-47D breast) | TGI (T-47D breast) | GI50 (SK-OV-3 ovarian) | TGI (SK-OV-3 ovarian) | GI50 (UACC-62 melanoma) | TGI (UACC-62 melanoma) | GI50 (TK-10 renal) | TGI (TK-10 renal) | GI50 (A498 renal) | TGI (A498 renal) | GI50 (SW-620 colon) | TGI (SW-620 colon) | GI50 (786-0 renal) | TGI (786-0 renal) | GI50 (ACHN renal) | TGI (ACHN renal) |
| --- | --- | --- | --- | --- | --- | --- | --- | --- | --- | --- | --- | --- | --- | --- | --- | --- | --- | --- | --- | --- |
| Cn1ccnc1C(=O)/C=C/c1ccc(CC(=O)Nc2ccc(Cl)cc2)cc1 | 1.46 µM | > 25 µM | 1.77 µM | > 25 µM | 4.3 µM | > 25 µM | 8.79 µM | > 25 µM | 6.5 µM | > 25 µM | 12.3 µM | > 25 µM | > 25 µM | > 25 µM | 1.25 µM | > 25 µM | 1.6 µM | > 25 µM | 15 µM | > 25 µM |
| O=C(O)c1ccc(S(=O)(=O)c2ccccc2)c([N+](=O)[O-])c1 |  | > 100 µM |  | > 100 µM |  |  |  | > 100 µM |  | > 100 µM |  | > 100 µM |  | > 100 µM |  | > 100 µM |  | > 100 µM |  | > 100 µM |
| S=CN1CCCCC1 |  | > 100 µM |  | > 100 µM |  | > 100 µM |  | > 100 µM |  | > 100 µM |  | > 100 µM |  | > 100 µM |  | > 100 µM |  | > 100 µM |  | > 100 µM |
| Cc1cc2c(cc1C)NC(=O)C(NC(=O)/C=C/c1ccccc1)C=N2 (configuration not stated) |  | 26 µM |  | > 100 µM |  |  |  | > 100 µM |  | > 100 µM |  | > 100 µM |  | > 100 µM |  | 19.6 µM |  | > 100 µM |  | > 100 µM |
| COc1cccc(-c2nn(-c3ccccc3)cc2-c2ccnc(NCCNS(=O)(=O)c3ccc(Cl)cc3)c2)c1 | 3.47 µM | > 100 µM | 7.44 µM | > 100 µM | 2.52 µM | 8.66 µM | 4.43 µM | > 100 µM | 5.51 µM | > 100 µM | 4.75 µM | > 100 µM | 3.4 µM | > 100 µM | 5.44 µM | > 100 µM | 6.61 µM | > 100 µM | 4.56 µM | > 100 µM |
| CN(N=O)C(=O)Nc1c[nH]c(=O)[nH]c1=O |  | > 100 µM |  | > 100 µM |  | > 100 µM |  | > 100 µM |  | > 100 µM |  | > 100 µM |  | > 100 µM |  | > 100 µM |  | > 100 µM |  | > 100 µM |
| COc1ccc(OCC(=O)O)c2c1CCC(C(C)C)C2=O (configuration not stated) |  | > 100 µM |  | > 100 µM |  |  |  | > 100 µM |  | > 100 µM |  | > 100 µM |  | > 100 µM |  | > 100 µM |  | > 100 µM |  | > 100 µM |
| C=C1C(=O)O[C@@H]2C[C@@H]1CC[C@]1(C)O[C@H]1CC[C@@]1(C)O[C@@H]1CC[C@@]2(C)O | 17.5 µM | 49.4 µM | 68.6 µM | > 100 µM | 12.2 µM | 33.3 µM | > 100 µM | > 100 µM | 42 µM | > 100 µM | 39.4 µM | > 100 µM |  |  | 29.2 µM | > 100 µM | 27.7 µM | 89.9 µM | 25.1 µM | 75.2 µM |
| CCOC(=N)CC(=O)Nc1ccc(Cl)cc1 |  | > 100 µM |  | > 100 µM |  |  |  | > 100 µM |  | > 100 µM |  | > 100 µM |  | > 100 µM |  | > 100 µM |  | > 100 µM |  | > 100 µM |
| Oc1ccc2ccccc2c1C=NCCCN=Cc1c(O)ccc2ccccc12 | 5.26 µM | 56.5 µM | 14.7 µM | > 100 µM | 6.66 µM | 43 µM | 24.8 µM | 67.5 µM | 4.27 µM | 16.8 µM | 24.4 µM | > 100 µM |  |  | 12.1 µM | 61.8 µM | 17.4 µM | 40.7 µM | 5.73 µM | 34.9 µM |
| O=C1c2ccccc2-c2c1c1ccccc1c(=O)n2Cc1ccco1 |  | > 100 µM |  |  |  | > 100 µM |  | > 100 µM |  | > 100 µM |  | > 100 µM |  | > 100 µM |  | > 100 µM |  | > 100 µM |  |  |
| CC1=C(C)C(=O)c2c(c(C(=O)c3ccccc3)c3nc4ccccc4n3c2C)C1=O | > 100 µM | > 100 µM | 38.1 µM | > 100 µM | > 100 µM | > 100 µM |  |  | 35 µM | > 100 µM | 59.5 µM | > 100 µM | > 100 µM | > 100 µM | > 100 µM | > 100 µM | 26.8 µM | 95.2 µM | 37.2 µM | > 100 µM |
| COc1ccc2[nH]cc(CCNC(C)=O)c2c1 |  | > 100 µM |  | > 100 µM |  |  |  | > 100 µM |  | > 100 µM |  | > 100 µM |  | > 100 µM |  | 24.1 µM |  | > 100 µM |  | > 100 µM |
| CC1=CC=NN2C(=O)[C@H](C)C2C1 (some centres not stated) |  | > 100 µM |  | > 100 µM |  |  |  | > 100 µM |  | > 100 µM |  | > 100 µM |  | > 100 µM |  | > 100 µM |  | > 100 µM |  | > 100 µM |
| C/C(=N\N=C(N)N)C(CN(CC(C)C)CC(C)C)C(=O)Nc1ccc(C)cc1C (configuration not stated) |  | > 100 µM |  | > 100 µM |  |  |  | > 100 µM |  | > 100 µM |  | > 100 µM |  | > 100 µM |  | > 100 µM |  | > 100 µM |  | > 100 µM |
| C/C(CN1C(=O)c2ccccc2C1=O)=N\NS(=O)(=O)c1cccc([N+](=O)[O-])c1 |  | > 100 µM |  | > 100 µM |  |  |  | > 100 µM |  | > 100 µM |  | > 100 µM |  | > 100 µM |  | > 100 µM |  | > 100 µM |  | > 100 µM |
| O=C1C2C(C(=O)N1O)N(Cc1ccccc1)C(=O)N2Cc1ccccc1 (configuration not stated) |  | > 100 µM |  | > 100 µM |  |  |  | > 100 µM |  | > 100 µM |  | > 100 µM |  | > 100 µM |  | > 100 µM |  | > 100 µM |  | > 100 µM |
| Cc1ccc(S(=O)(=O)N/N=C(\CCN2CCCC2)CC(c2ccccc2)c2c(O)c3ccccc3oc2=O)cc1 (configuration not stated) |  | > 100 µM |  | > 100 µM |  |  |  | > 100 µM |  | > 100 µM |  | > 100 µM |  | > 100 µM |  | > 100 µM |  | > 100 µM |  | > 100 µM |
| Cc1ccc(NC(=O)c2[nH]c(=S)nc(N)c2-c2ccccc2C)cc1C |  | > 100 µM |  | > 100 µM |  |  |  | > 100 µM |  | > 100 µM |  | > 100 µM |  | > 100 µM |  | > 100 µM |  | > 100 µM |  | > 100 µM |
| Nc1ccccc1C#CC#Cc1ccccc1N |  |  | > 100 µM | > 100 µM | > 100 µM | > 100 µM | 58 µM | > 100 µM | 11.8 µM | 25.3 µM | 12.5 µM | 32.9 µM |  |  | 15.7 µM | 35.3 µM | 13.2 µM | 27 µM | 10.6 µM | 22.9 µM |
